The source made the active and inactive calls.
Legend:
[1] = molecular target: T1, Mitochondrial peptide methionine sulfoxide reductase (Bos taurus, UniProt P54149); assay: Absorbance-based biochemical high throughput dose response assay for activators of Methionine sulfoxide reductase A (MsrA).; type: functional
T1 sequence (P54149 whole entry): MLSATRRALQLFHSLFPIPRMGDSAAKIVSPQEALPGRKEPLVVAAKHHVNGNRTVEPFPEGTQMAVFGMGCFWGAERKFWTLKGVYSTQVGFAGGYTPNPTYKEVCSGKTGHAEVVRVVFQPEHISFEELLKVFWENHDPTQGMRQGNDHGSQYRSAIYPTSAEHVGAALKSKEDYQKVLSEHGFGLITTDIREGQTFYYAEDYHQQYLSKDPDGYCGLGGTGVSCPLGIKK

[2] = Trypanosoma cruzi growth suppression in host cells – NIH3T3 host cells, beta-gal luminescence, confirmation (AID 2044); type: functional, cell-based;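 note: intracellular parasites grown in NIH/3T3 mouse fibroblasts as host cells; luminescent beta-galactosidase reporter signal from transgenic T. cruzi replicating inside host cells; inhibitors lower the luminescence signal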
[3] = NIH3T3 cell viability loss – ATP luminescence, mouse fibroblasts, counter-screen, dose response (AID 2010); type: functional, cell-based;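 note: cells exposed to compound for about 90 hours before reading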
Vero = assay: cells; type: functional; conditions: Chlorocebus sabaeus
[4] = bead-based luminescence quenchers, dual-tagged ARNT – biochemical, AlphaScreen, cherry-pick, artefact control for ARNT-TACC3 interaction inhibitor project, dose response (AID 651705); type: functional;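 note: AlphaScreen bead proximity signal that flags compounds interfering with the detection technology; potency reflects signal decrease which marks the compound as an assay artifact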
[5] = inhibition of ARNT PAS-B/TACC3 complex formation – biochemical, AlphaScreen, cherry-picked samples, confirmation (AID 651703); type: functional, Homo sapiens;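 note: His-tagged ARNT PAS-B domain paired with GST-TACC3 E629A dimer coactivator fragment; potency of inhibitors that break up the complex and lower AlphaScreen signal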
[6] = molecular target: T2, DNA repair protein RAD52 homolog (Homo sapiens, UniProt P43351); type: functional, biochemical
T2 sequence (P43351 whole entry): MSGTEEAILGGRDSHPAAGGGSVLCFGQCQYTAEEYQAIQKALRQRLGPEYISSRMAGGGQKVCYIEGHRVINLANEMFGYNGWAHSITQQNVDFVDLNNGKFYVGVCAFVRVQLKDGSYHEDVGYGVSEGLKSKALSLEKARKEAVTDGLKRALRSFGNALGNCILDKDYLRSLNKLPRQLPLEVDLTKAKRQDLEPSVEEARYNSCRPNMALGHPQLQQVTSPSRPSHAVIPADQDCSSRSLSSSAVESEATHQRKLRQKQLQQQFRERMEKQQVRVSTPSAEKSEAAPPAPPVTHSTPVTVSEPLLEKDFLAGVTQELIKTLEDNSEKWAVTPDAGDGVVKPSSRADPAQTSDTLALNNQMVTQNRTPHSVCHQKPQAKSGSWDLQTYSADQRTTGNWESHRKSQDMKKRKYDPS

Leucine aminopeptidase = molecular target: T3, Leucine aminopeptidase (Plasmodium falciparum 3D7, UniProt Q8IL11); assay: P. falciparum M17LAP inhibitors, primary screen, biochemical, fluorogenic H-Leu-NHMec substrate, 1536-well (AID 1619); type: functional
T3 sequence (Q8IL11 whole entry): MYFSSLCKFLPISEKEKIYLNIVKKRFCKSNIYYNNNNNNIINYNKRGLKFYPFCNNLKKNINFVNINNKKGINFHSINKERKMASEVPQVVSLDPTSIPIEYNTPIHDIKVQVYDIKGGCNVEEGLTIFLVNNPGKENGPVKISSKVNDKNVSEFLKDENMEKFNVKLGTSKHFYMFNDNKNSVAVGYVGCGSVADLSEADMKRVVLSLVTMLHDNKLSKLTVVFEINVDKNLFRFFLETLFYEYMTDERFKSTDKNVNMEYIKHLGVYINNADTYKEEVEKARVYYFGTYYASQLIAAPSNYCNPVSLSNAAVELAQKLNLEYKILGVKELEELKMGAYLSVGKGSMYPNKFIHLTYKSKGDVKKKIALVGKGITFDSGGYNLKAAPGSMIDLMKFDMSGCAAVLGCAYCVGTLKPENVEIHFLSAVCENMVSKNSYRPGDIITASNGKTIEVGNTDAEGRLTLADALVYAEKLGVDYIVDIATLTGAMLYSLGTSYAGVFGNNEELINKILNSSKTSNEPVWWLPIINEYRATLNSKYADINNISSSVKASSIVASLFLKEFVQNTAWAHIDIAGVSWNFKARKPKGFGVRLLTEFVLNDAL

Cytochrome P450 2C19 = Cytochrome P450 2C19 (Homo sapiens, UniProt P33261); assay: Cytochrome panel assay with activity outcomes. Panel member name: p450-cyp2c19 Compounds with AC50 equal or less than 10 uM are considered active; type: functional; conditions: read-out: AC50
Sequence of Cytochrome P450 2C19 (P33261 whole entry): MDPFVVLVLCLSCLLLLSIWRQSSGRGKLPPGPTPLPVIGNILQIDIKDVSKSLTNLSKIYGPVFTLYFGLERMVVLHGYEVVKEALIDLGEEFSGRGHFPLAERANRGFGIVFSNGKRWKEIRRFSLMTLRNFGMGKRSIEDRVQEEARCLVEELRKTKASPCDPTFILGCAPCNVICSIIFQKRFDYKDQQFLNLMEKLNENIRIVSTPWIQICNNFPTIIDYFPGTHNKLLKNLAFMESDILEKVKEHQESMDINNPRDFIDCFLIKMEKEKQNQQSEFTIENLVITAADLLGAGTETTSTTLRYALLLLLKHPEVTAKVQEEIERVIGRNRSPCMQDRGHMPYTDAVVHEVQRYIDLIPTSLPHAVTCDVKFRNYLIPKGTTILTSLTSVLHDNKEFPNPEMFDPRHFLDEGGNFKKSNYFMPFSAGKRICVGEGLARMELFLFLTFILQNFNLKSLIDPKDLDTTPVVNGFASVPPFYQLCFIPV

Cytochrome P450 2C9 = Cytochrome P450 2C9 (Homo sapiens, UniProt P11712)
Sequence of Cytochrome P450 2C9 (P11712 whole entry): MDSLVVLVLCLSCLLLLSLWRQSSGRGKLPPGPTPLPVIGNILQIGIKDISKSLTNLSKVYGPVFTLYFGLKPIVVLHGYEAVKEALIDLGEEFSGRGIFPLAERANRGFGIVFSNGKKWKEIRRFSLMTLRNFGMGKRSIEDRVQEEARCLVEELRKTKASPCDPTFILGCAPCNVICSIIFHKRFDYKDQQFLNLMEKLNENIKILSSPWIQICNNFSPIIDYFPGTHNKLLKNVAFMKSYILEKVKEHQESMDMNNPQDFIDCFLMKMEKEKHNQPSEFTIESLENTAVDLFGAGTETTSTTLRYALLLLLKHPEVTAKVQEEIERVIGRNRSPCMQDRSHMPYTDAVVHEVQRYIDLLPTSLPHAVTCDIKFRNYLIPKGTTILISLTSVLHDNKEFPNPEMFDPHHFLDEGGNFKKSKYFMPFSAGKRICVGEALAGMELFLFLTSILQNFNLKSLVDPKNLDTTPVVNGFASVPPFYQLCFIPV

[7] = molecular target: T4, Sentrin-specific protease 8 (Homo sapiens, UniProt Q96LD8); assay: inhibition of human SENP8 cleavage activity – biochemical, luminescence, SAR follow-up (AID 504501); type: functional
T4 sequence (Q96LD8 whole entry): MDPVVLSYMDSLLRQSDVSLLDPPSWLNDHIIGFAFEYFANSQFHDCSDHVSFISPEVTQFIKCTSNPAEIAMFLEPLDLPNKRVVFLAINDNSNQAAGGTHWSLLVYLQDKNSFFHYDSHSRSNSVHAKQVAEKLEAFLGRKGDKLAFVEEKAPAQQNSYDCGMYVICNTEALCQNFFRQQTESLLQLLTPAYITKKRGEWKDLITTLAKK

Caspase-3 = molecular target: T5, Caspase-3 (Homo sapiens, UniProt P42574); assay: SAR Analysis of small molecule inhibitors of Sentrin-specific proteases (SENPs) using a Caspase-3 Selectivity assay. [Related pubchem assays (depositor defined):AID2540, AID2599, AID434973, AID489001]; type: functional
T5 sequence (P42574 whole entry): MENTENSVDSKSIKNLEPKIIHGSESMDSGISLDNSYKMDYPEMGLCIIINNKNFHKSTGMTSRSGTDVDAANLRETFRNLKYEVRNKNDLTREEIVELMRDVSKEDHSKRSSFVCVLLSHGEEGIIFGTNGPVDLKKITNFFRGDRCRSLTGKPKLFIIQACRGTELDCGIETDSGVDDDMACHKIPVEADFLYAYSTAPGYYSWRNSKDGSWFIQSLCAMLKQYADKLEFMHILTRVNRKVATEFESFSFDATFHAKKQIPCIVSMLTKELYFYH

[8] = molecular target: T6, Sentrin-specific protease 6 (Homo sapiens, UniProt Q9GZR1); assay: SAR Analysis of small molecule inhibitors of Sentrin-specific protease 6 (SENP6) using a Luminescent assay. [Related pubchem assays (depositor defined):AID2582, AID2599]; type: functional
T6 sequence (Q9GZR1 whole entry): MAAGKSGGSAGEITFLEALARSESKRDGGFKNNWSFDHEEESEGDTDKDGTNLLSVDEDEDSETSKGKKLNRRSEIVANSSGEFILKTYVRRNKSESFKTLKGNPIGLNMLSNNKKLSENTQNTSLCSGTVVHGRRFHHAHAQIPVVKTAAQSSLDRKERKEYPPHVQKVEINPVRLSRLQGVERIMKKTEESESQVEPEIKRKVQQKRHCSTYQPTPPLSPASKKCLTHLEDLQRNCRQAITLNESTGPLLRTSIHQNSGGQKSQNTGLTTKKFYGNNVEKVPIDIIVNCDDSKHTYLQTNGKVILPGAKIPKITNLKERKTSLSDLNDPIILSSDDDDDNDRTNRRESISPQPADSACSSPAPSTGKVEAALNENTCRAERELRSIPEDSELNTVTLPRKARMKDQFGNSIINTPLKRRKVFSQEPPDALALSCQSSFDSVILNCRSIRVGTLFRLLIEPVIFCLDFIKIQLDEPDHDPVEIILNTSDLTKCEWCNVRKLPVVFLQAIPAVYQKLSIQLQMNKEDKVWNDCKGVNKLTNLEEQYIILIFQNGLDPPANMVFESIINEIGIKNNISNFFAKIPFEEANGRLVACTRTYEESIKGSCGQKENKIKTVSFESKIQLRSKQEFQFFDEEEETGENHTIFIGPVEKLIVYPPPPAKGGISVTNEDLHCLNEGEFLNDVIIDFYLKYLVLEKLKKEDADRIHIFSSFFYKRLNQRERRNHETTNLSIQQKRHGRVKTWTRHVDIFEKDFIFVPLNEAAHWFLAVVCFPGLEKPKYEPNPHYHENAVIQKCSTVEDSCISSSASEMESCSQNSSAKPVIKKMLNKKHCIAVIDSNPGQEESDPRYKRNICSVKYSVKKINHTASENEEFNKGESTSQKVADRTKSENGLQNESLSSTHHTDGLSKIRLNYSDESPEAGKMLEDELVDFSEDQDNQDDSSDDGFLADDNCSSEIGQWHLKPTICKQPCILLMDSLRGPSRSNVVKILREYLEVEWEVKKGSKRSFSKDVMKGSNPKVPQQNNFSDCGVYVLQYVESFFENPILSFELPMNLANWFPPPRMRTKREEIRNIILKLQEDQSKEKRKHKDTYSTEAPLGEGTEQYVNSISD

[9] = molecular target: T7, Sentrin-specific protease 7 (Homo sapiens, UniProt Q9BQF6); assay: inhibition of human SENP7 cleavage activity – biochemical, luminescence, SAR follow-up (AID 504497); type: functional
T7 sequence (Q9BQF6 whole entry): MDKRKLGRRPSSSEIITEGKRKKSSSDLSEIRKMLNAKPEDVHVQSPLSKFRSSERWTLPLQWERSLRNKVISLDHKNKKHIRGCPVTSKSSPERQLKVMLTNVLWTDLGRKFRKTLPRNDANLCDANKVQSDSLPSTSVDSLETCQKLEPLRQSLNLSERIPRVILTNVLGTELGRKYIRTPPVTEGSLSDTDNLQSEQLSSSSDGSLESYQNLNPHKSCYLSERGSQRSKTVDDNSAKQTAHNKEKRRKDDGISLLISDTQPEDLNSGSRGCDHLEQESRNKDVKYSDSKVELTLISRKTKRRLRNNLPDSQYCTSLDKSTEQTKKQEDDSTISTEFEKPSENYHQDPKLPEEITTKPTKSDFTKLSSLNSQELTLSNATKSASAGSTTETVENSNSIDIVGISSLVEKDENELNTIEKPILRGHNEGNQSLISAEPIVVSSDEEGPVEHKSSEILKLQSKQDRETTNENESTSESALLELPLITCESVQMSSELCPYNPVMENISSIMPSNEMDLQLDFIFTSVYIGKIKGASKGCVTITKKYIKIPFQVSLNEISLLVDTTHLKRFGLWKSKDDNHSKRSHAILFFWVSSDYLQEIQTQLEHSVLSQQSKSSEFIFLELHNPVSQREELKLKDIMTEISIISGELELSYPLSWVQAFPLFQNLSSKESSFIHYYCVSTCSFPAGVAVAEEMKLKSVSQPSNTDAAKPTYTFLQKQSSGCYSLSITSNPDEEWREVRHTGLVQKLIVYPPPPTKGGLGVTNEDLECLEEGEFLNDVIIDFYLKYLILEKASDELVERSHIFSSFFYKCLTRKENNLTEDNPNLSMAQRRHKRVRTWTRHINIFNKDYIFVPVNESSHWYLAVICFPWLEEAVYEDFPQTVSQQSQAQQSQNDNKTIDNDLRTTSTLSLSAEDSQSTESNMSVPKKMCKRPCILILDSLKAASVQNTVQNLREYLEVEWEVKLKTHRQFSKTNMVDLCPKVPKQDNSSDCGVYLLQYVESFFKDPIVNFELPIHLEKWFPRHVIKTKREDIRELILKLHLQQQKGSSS

Melanocortin receptor 4 = Melanocortin receptor 4 (Homo sapiens, UniProt P32245); type: functional, cell-based;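 note: Cell-based assay with luminescence read-out, confirmatory dose-response testing for agonist activity of biased ligands at MC4R; human U2OS cells with tagged receptor and beta-arrestin; potency of agonists that increase receptor coupling to beta-arrestin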
Sequence of Melanocortin receptor 4 (P32245 whole entry): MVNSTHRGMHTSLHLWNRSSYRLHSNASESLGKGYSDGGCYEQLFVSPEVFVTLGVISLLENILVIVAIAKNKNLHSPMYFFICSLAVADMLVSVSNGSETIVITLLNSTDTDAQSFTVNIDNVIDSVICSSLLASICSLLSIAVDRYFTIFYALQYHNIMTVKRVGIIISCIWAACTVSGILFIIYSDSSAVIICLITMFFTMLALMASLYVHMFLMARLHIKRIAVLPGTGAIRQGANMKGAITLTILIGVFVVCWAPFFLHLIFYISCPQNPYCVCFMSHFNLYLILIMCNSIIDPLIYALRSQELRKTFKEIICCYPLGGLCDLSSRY

[10] = molecular target: T8, Aryl hydrocarbon receptor (Homo sapiens, UniProt P35869); conditions: Potency;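 note: confirmatory quantitative high-throughput screen measuring activation of the AhR signaling pathway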
T8 sequence (P35869 whole entry): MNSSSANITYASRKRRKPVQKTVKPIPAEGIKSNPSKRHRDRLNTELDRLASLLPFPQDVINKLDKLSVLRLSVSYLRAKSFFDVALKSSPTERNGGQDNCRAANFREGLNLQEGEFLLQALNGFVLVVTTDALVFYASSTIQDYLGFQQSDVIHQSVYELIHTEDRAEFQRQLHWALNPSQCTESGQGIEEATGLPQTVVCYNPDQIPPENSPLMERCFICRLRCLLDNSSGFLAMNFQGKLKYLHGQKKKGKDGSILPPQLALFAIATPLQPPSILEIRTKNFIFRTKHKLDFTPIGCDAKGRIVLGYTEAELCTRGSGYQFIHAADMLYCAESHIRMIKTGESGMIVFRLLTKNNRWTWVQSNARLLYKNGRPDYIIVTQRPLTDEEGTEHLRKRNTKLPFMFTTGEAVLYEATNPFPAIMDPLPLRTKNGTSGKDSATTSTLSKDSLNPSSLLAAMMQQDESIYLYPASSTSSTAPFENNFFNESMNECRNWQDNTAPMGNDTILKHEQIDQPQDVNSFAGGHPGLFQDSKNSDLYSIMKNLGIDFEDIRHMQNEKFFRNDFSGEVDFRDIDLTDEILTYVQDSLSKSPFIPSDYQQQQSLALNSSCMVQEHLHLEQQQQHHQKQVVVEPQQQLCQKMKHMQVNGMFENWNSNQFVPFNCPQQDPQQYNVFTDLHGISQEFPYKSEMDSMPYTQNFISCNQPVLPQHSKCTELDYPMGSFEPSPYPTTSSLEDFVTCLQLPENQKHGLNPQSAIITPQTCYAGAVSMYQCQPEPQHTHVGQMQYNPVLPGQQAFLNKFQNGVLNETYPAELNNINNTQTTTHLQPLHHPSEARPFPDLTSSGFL

Cc1ccc(C)c2nc3sc(C(=O)N4CCOCC4)c(N)c3cc12
EC50 [1]: > 104 µM (inactive)

COc1cc2nc(Nc3ccc(C)c(C)c3)nc(N)c2cc1OC
EC50 [2]: 0.559 µM (active) | EC50 [3]: > 30 µM (not active) | CC50 (Vero): 14.8 µM (active) | AC50 [4]: 89.2 µM (active) | AC50 [5]: 74.1 µM (active) | AC50 [6]: 5.47 µM (active)

Sc1nc2cc(Cl)ccc2s1
IC50 (Leucine aminopeptidase): 14.8 µM (active) | AC50 (Cytochrome P450 2C19): 11.2 µM (inconclusive) | EC50 [1]: > 104 µM (inactive) | AC50 (Cytochrome P450 2C9): 39.8 µM (inconclusive)

CS(=O)(=O)c1ccc(N/N=C/c2c[nH]c3ccccc23)cc1
IC50 [7]: > 99 µM (inactive) | IC50 (Caspase-3): > 99 µM (inactive) | IC50 [8]: > 99 µM (inactive) | IC50 [9]: > 99 µM (inactive)

O=C(NC(c1ccc(Cl)cc1)c1ccccn1)C1CCN(CCOc2ccc(Cl)cc2Cl)CC1 (stereo unspecified)
EC50 (Melanocortin receptor 4): > 89.2 µM (inactive)

COc1ccc(C(=O)Nc2ccc3ccccc3c2)cc1Br
IC50 [7]: > 99 µM (inactive) | IC50 (Caspase-3): > 99 µM (inactive) | IC50 [8]: > 99 µM (inactive) | IC50 [9]: > 99 µM (inactive)

COP(=O)(OC)SCn1c(=O)oc2cc(Cl)cnc21 [AZAMETHIPHOS]
AC50 [10]: 44.7 µM (inconclusive)

Reference: ChEMBL document CHEMBL1201862, “PubChem BioAssay data set” (2004)
